# Reference: patent US20260108614A1, “IMMOBILIZED ENDOGLYCOSIDASE FUSION PROTEIN AND USE THEREOF” (GENEQUANTUM HEALTHCARE (SUZHOU) CO., LTD., priority 2022, published 2026)
# Where two headings read alike, the source gives them in different places. Square brackets hold non-standard residues; d marks the D form. Peptide text beside a SMILES is read from it. * marks the point of attachment. Dolaproine = CO[C@@H]([C@@H]1CCCN1)[C@@H](C)C(=O)O; Dil = CC[C@H](C)[C@H](NC)[C@@H](CC(=O)O)OC; X1 = C[C@@H](N*)[C@@H](O)c1ccccc1; NMeV = CN[C@H](C(=O)O)C(C)C
# Experiments:
# [1] = test system: ErbB2/Her2-positive human breast cancer cells BT-474; test: Tumor cell proliferation inhibition (CellTiter Glo), BT-474; assay type: cell-based; conditions: Table 3; incubation 72 to 120 h; "—" = undetected; read-out: Inhibitory effect on proliferation of Tumor Cells (IC50, nM), BT-474
# Procedure: (§1) 1) ErbB2/Her2-positive human breast cancer cells BT-474, ErbB2/Her2-positive human gastric cancer cells NCI-N87 and ErbB2/Her2-negative human liver cancer cells HepG2 were inoculated into a 96-well cell plate at 100 μl/well (1000 to 10000 cells), and incubated overnight in a cell incubator under the conditions of 37° C., 5% CO2, and 100% humidity.
# (§2) Incubation was further performed at 37° C. for 72 to 120 h.
# (§3) 3) The cell plate was removed from the 37° C. cell incubator, and equilibrated for about 30 min to room temperature. 100 μl of CellTiter Glo reagent was added into each well, a shaker shook for 2 min, followed by standing in a dark place at room temperature for 10 min, and a relative light unit (RLU) was measured with an MD M4 microplate reader.
# [2] = test system: ErbB2/Her2-positive human gastric cancer cells NCI-N87; test: Tumor cell proliferation inhibition (CellTiter Glo), NCI-N87; assay type: cell-based; conditions: Table 3; incubation 72 to 120 h; "—" = undetected; read-out: Inhibitory effect on proliferation of Tumor Cells (IC50, nM), NCI-N87
# Procedure: as §1, §2, §3
# [3] = test system: human liver cancer cells HepG2; test: Tumor cell proliferation inhibition (CellTiter Glo), HepG2; assay type: cell-based; conditions: "—" = undetected, read-out: Inhibitory effect on proliferation of Tumor Cells (IC50, nM), HepG2
# Procedure: as §1, §2, §3
# (§4) BxPC-3, FaDu, HepG2 and other human tumor cells were selected.
# (§5) TROP2-positive human tumor cells such as BxPC-3 (human pancreatic cancer cell) and FaDu (human throat cancer cell), and TROP2-negative tumor cells such as HepG2 (human liver cancer cell) were selected.
# [4] = test system: BxPC-3 (human pancreatic cancer cell); test: Tumor cell proliferation inhibition, BxPC-3; assay type: cell-based; conditions: Table 7; TROP2-positive; "—" = undetected; read-out: Inhibitory effect on proliferation of Tumor Cells (IC50, nM), BxPC-3
# Procedure: as §1, §2, §3, §4, §5
# [5] = test system: FaDu (human throat cancer cell); test: Tumor cell proliferation inhibition, FaDu; assay type: cell-based; conditions: Table 7; TROP2-positive; "—" = undetected; read-out: Inhibitory effect on proliferation of Tumor Cells (IC50, nM), FaDu
# Procedure: as §1, §2, §3, §4, §5
# [6] = test system: ErbB2/Her2-positive cells; test: Tumor cell proliferation inhibition, ErbB2/Her2-positive cells as a group; assay type: cell-based, human; conditions: Example 9; BT-474 and NCI-N87
# [7] = test system: TROP2-positive cells; test: Tumor cell proliferation inhibition, TROP2-positive cells as a group; assay type: cell-based, human; conditions: Example 19; BxPC-3 and FaDu
# Procedure: as §1, §2, §3, §4, §5
compound,measurement,setting,value
"CC[C@H](C)[C@@H]([C@@H](CC(=O)N1CCC[C@H]1[C@H](OC)[C@@H](C)C(=O)N[C@H](C)[C@@H](O)c1ccccc1)OC)N(C)C(=O)[C@@H](NC(=O)[C@@H](NC)C(C)C)C(C)C [MMAE, monomethylauristatin E, reference compound] (H-[NMeV]V[Dil][Dolaproine]-X1)",IC50,[1],0.272 nM
same,IC50,[2],0.248 nM
same,IC50,"[3]; Table 3, ErbB2/Her2-negative cells, incubation 72 to 120 h",0.567 nM
same,IC50,"[3]; Table 7, TROP2-negative",0.398 nM
same,IC50,[4],0.388 nM
same,IC50,[5],0.167 nM
same,inhibitory effect on proliferation of the ErbB2/Her2-positive cells (in words),[6],obvious inhibitory effect
same,inhibitory effect on proliferation of the TROP2-positive cells (in words),[7],obvious inhibitory effect
